One data set concerns HCT116 spheroids. The data set is described as follows: Spheroid + radiation colony forming cell survival assay (SF), HCT116. The format is cell-based. The note with it: Homo sapiens, HCT-116, 8 Gy. Here is the method: (§1) Multicellular tumour spheroids determination of compound inhibition of pDNA-PK induction following radiation. Tumour spheroids were grown to approximately 0.5 mm in diameter and irradiated with 20 Gy in combination with inhibitor test compounds to determine their potency. Inhibitor concentration for 50% reduction in pDNA-PK induction (IC50) was determined via immunohistochemical staining in spheroid cryosections taken 2 hours following radiation. For cell survival endpoint 8 Gy radiation was used and 3 hours following radiation spheroids were dissociated, counted and plated for colony forming endpoint.
Spheroid+radiation colony forming cell survival assay (SF). Radiation 8 Gy. Drug: serial dilution 5 μM down to 10 nM (12 wells×2 repeat). Spheroids: 5-10 spheroids per well ([…]). HCT116. 5% O2 and 5% CO2. 96 well pate format for assay. Protocol: pre incubate 1 hour with drug, irradiate 8 Gy, post incubate 3 hrs with drug, dissociate spheroids and count cells and plate for colony forming assay. Endpoint: wait 4-7 days and count colonies. Analysis: determine EC50 concentration that increase cell kill by 50% over radiation alone.
(§2) Multicellular tumour spheroids were used to determine potency of test compounds in a 3D tissue environment using inhibition of pDNA-PK induction following radiation or cell survival as the endpoint. For the pDNA-PK endpoint HCT116 or FaDU tumour spheroids were grown to approximately 0.5 mm in diameter and irradiated with 20 Gy in combination with inhibitor test compounds to determine their potency. Experiments were carried out in 96 well plates containing 0.7 mls of MEM media containing 10% FBS and 10 mM glucose under 20% O2 & 5% CO2 at 37° C. Following dilution of compounds 1:1000 from DMSO stocks, compounds were serially diluted from 10 μM down to 3.5 nM and 5-10 spheroids added. 96 well plates were constantly stirred to avoid spheroids settling during the course of the experiment. The inhibitor concentration for 50% reduction in pDNA-PK induction (EC50) was determined via immunohistochemical staining in spheroid cryosections taken 2 hours following radiation using anti-pDNA-PK (ser 2056) and fixed immediately in formalin following sectioning. For cell survival endpoint 8 Gy radiation was used and, 3 hours following radiation, spheroids were dissociated, counted and plated for colony forming endpoint. Data presented in the table compound potency as EC50 [μM].

Data set [1] concerns the target T1, pDNA-PK ser2056 induction in HCT116 spheroids (Homo sapiens, UniProt P78527).
T1 construct: endogenous in cells; host or cells: HCT116 multicellular tumour spheroids
The data set is described as follows: Multicellular tumour spheroid + radiation, pDNA-PK inhibition, HCT116. The note with it: 20 Gy. Format: cell-based. In short, it runs like this: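 EC50 (μM) is concentration halving radiation-induced pDNA-PK ser2056, scored by fluorescent immunostaining of cryosections 2 h after 20 Gy. HCT116 tumour spheroids (~0.5 mm, stirred, 20% O2/5% CO2, 37 °C) exposed to serial dilutions from 10 or 5 μM to 3.5 nM starting 1 h before irradiation.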

Data set [2] addresses T2, pDNA-PK ser2056 induction in FaDU spheroids (Homo sapiens, UniProt P78527).
T2 construct: host or cells: FaDu
The data set is described as follows: Multicellular tumour spheroid + radiation, pDNA-PK inhibition, FaDU. The note with it: 20 Gy. Format: cell-based. The method, then: as §1
Spheroid+radiation pDNA-PK. Radiation: 20 Gy. Drug: serial dilution 5 or 10 μM down to 3.5 nM (11 wells). Spheroids: 3-6 spheroids per well (300-500 μm diameter). 20% O2 and 5% CO2. 96 well plate format. Endpoint: fluorescent immunostain pDNA-PK ser2056 and image on microscope. Analysis: determine EC50 concentrations that decreases pDNA-PK induction […] after irradiation.
as §2

The target in the next data set is T3, DNA-PK (Homo sapiens, UniProt P78527).
T3 construct: purchased Invitrogen PR9107A
The data set is described as follows: DNA-PK Assay for Biochemical Enzymatic Inhibition (ADP Glo Kinase assay). The note with it: Table 1. The method, boiled down: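 Human DNA-PK (25 ng) preincubated 15 min with compounds (ten three-fold dilutions) in HEPES pH 7.5, MgCl2, KCl, calf thymus DNA buffer, then substrate 434.4 μM and ATP 64.4 μM (final) for 60 min at room temperature. ADP-Glo luminescence; percent inhibition fitted by four-parameter regression for IC50.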
For orientation: In ADP-Glo the light output rises with the ADP produced.

Data set [3] can be described thus: Microsomal stability assay, mouse liver microsomes. The note with it: for microsomal CLint at 0.1 uM: male, CD-1, mouse, liver microsomes, pH 7.4, Microsomal Stability Mouse Clint, 0.1 mg/mL microsomes, 0.1 uM compound. On the technique in general: Liver microsomes are a subcellular fraction often used to study metabolism.
The target of data set [4] is T4, DNA-PK phosphorylation at Serine 2056 (Homo sapiens, UniProt P78527).
T4 construct: host or cells: FaDu
The data set is described as follows: Cellular Assay for Inhibition of DNA-PK Phosphorylation at Serine 2056 (FaDu cells, neocarzinostatin, sandwich ELISA). The format is cell-based. The note with it: Table 1. In short, it runs like this:
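Readout was pSer2056 and total DNA-PK, measured by sandwich ELISA on protein-normalized lysates. Prior to lysis, compound was applied to FaDu cells for 1 h (0.3% DMSO), followed by 2 h of 1 μg/mL neocarzinostatin. IC50 values were fitted from log concentration versus % inhibition normalized to DMSO and NCS controls.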
(In general: ELISA stands for enzyme-linked immunosorbent assay.)

Where [5] appears, read: Example 7, spheroid, cell line HCT115 [sic], 20% O2, read-out: EC50 (pDNA-PK inhibition, immunohistochemical endpoint).
Where [6] appears, read: Example 8, spheroid, read-out: Cell line: HCT116 Immunohistochemical endpoint pDNA-PK inhibition EC50.
Setting [7] is: Example 9 Study 2, 20% O2, read-out: Spheroid Cell line: HCT116 Immunohistochemical endpoint pDNA-PK inhibition EC50.
[8] abbreviates: Example 8, spheroid, read-out: Cell line: FaDU Immunohistochemical endpoint pDNA-PK inhibition EC50.
Where [9] appears, read: Example 9 Study 2, 20% O2, read-out: Spheroid Cell line: FaDU Immunohistochemical endpoint pDNA-PK inhibition EC50.

SMILES strings stand for the structures. Read-outs that look alike come from different tables or passages of the source. Where only a bound is given, the exact number is not on record here.

For orientation: EC50 means the concentration that produces a half-maximal response. On to `Brc1cnc2cc(N3CCOCC3)nc(O[C@H]3CC[C@@H](n4ccnc4)CC3)c2c1` [Compound 10, 4-(5-(((1s,4s)-4-(1H-imidazol-1-yl)cyclohexyl)oxy)-3-bromo-1,6-naphthyridin-7-yl)morpholine], for which the concentration for a half-maximal effect (EC50) in the data set with HCT116 spheroids (Example 8, spheroid, read-out: Cell line: HCT116 Colony forming endpoint Surviving Fraction EC50) fell in the range of 0.5 to 1 µM; in the data set on HCT116 spheroids (Example 9 Study 2, read-out: Spheroid Cell line: HCT116 Colony forming endpoint Surviving Fraction EC50), 0.5 to 1 µM; in data set [1] (setting [5]), 1 to 10 µM; in data set [1] (setting [6]) it was 1 to 10 µM; in data set [1] (setting [7]), 1 to 10 µM; in data set [2] (setting [8]) it was 0.5 to 1 µM. Further, the concentration for a half-maximal effect (EC50) in data set [2] (setting [9]) fell in the range of 0.5 to 1 µM.

As a reminder, the IC50 is the point on the concentration scale where inhibition reaches its midpoint. The term microsomal CLint denotes the rate of metabolic loss divided by the concentration. High values mean rapid turnover, low ones slow turnover. In the case of `FC(F)(F)c1cn([C@H]2CC[C@@H](Oc3nc(N4CCOCC4)cc4ncccc34)CC2)cn1` [Compound 17k, 4-(5-(((1s,4s)-4-(4-(trifluoromethyl)-1H-imidazol-1-yl)cyclohexyl)oxy)-1,6-naphthyridin-7-yl)morpholine], the IC50 on DNA-PK is less than 0.0005 µM; in data set [4] it was less than 0.1 µM. The “Microsomal Stability (mouse) % rem. 60 min” value in data set [3] was “E (% remaining = 0-25%)”. The same molecule yielded a microsomal CLint at 0.1 uM in data set [3] greater than 116 µL/min/mg. For the same molecule, the EC50 is 1 to 10 µM in data set [1] (setting [5]); 1 to 10 µM in data set [1] (setting [6]); 1 to 10 µM in data set [1] (setting [7]); 0.5 to 1 µM in data set [2] (setting [8]); 0.5 to 1 µM in data set [2] (setting [9]).

`c1cnc2cc(N3CCOCC3)nc(O[C@H]3CC[C@@H](Nc4cnccn4)CC3)c2c1` [Compound 23, N-((1s,4s)-4-((7-Morpholino-1,6-naphthyridin-5-yl)oxy)cyclohexyl)pyrazin-2-amine]: the IC50 on DNA-PK was less than 0.0005 µM; in data set [4] it was 0.1 to 1 µM. In addition, the “Microsomal Stability (mouse) % rem. 60 min” value in data set [3] is recorded as “E (% remaining = 0-25%)”. In data set [3], this molecule gave a microsomal CLint at 0.1 uM greater than 116 µL/min/mg. Moreover, the EC50 in data set [1] (setting [5]), in data set [1] (setting [6]), in data set [1] (setting [7]), in data set [2] (setting [8]) and in data set [2] (setting [9]) was 0.01 to 0.5 µM throughout.

For `c1ccc(N[C@H]2CC[C@@H](Oc3nc(N4CCOCC4)cc4ncccc34)CC2)nc1` [Compound 25, N-((1s,4s)-4-((7-morpholino-1,6-naphthyridin-5-yl)oxy)cyclohexyl)pyridin-2-amine], the IC50 was in the range of 0.0005 to 0.001 µM on DNA-PK and 0.1 to 1 µM in data set [4]. Also, the “Microsomal Stability (mouse) % rem. 60 min” value in data set [3] is recorded as “F (% remaining = 25-50%)”. The microsomal CLint at 0.1 uM in data set [3] is greater than 116 µL/min/mg. The EC50 in data set [1] (setting [5]), in data set [1] (setting [6]), in data set [1] (setting [7]), in data set [2] (setting [8]) and in data set [2] (setting [9]) was 1 to 10 µM in each case.

For the molecule `c1cnc2cc(N3CCOCC3)nc(O[C@H]3CC[C@@H](Nc4ccncc4)CC3)c2c1` [Compound 27, N-((1s,4s)-4-((7-morpholino-1,6-naphthyridin-5-yl)oxy)cyclohexyl)pyridin-4-amine], the IC50 was 0.0005 to 0.001 µM on DNA-PK and 0.1 to 1 µM in data set [4]. Besides, the “Microsomal Stability (mouse) % rem. 60 min” value in data set [3] is given as “E (% remaining = 0-25%)”. In addition, the microsomal CLint at 0.1 uM in data set [3] was greater than 116 µL/min/mg. The EC50 in data set [1] (setting [5]) lay in the range of 1 to 10 µM; in data set [1] (setting [6]), 1 to 10 µM; in data set [1] (setting [7]), 1 to 10 µM; in data set [2] (setting [8]), 0.01 to 0.5 µM; in data set [2] (setting [9]), 0.01 to 0.5 µM.

Turning to `O=C(N[C@H]1CC[C@@H](Oc2nc(N3CCOCC3)cc3ncccc23)CC1)c1ccc(F)cc1` [Compound 111, 4-Fluoro-N-((1s,4s)-4-((7-morpholino-1,6-naphthyridin-5-yl)oxy)cyclohexyl)benzamide], the IC50 is less than 0.0005 µM at DNA-PK and less than 0.1 µM in data set [4]. For the same molecule, the “Microsomal Stability (mouse) % rem. 60 min” value in data set [3] is “E (% remaining = 0-25%)”. In addition, the intrinsic clearance (microsomal CLint) at 0.1 uM in data set [3] is greater than 116 µL/min/mg. For the same molecule, the 50% effective concentration (EC50) was in the range of 1 to 10 µM in data set [1] (setting [5]); 1 to 10 µM in data set [1] (setting [6]); 1 to 10 µM in data set [1] (setting [7]); 0.5 to 1 µM in data set [2] (setting [8]); 0.5 to 1 µM in data set [2] (setting [9]).

Turning to `COc1ccc(C(=O)N[C@H]2CC[C@@H](Oc3nc(N4CCOCC4)cc4ncccc34)CC2)cc1` [Compound 112, 4-Methoxy-N-((1s,4s)-4-((7-morpholino-1,6-naphthyridin-5-yl)oxy)cyclohexyl)benzamide], the half-maximal inhibitory concentration (IC50) was less than 0.0005 µM at DNA-PK and 0.1 to 1 µM in data set [4]. Moreover, in data set [3], the “Microsomal Stability (mouse) % rem. 60 min” value is given as “E (% remaining = 0-25%)”. In addition, the microsomal CLint at 0.1 uM in data set [3] was greater than 116 µL/min/mg. Further, the EC50 in data set [1] (setting [5]), in data set [1] (setting [6]), in data set [1] (setting [7]), in data set [2] (setting [8]) and in data set [2] (setting [9]) was 0.01 to 0.5 µM throughout.

Consider `Nc1cnc2cc(N3CCOCC3)nc(O[C@H]3CC[C@@H](n4ccnc4)CC3)c2c1` [Compound 160, 5-(((1s,4s)-4-(1H-imidazol-1-yl)cyclohexyl)oxy)-7-morpholino-1,6-naphthyridin-3-amine], for which the IC50 at DNA-PK is 0.0005 to 0.001 µM; in data set [4], 0.1 to 1 µM. Further, the “Microsomal Stability (mouse) % rem. 60 min” value in data set [3] is given as “E (% remaining = 0-25%)”. In data set [3], this molecule gave a microsomal CLint at 0.1 uM greater than 116 µL/min/mg. Besides, the concentration for a half-maximal effect (EC50) in data set [1] (setting [5]), in data set [1] (setting [6]), in data set [1] (setting [7]), in data set [2] (setting [8]) and in data set [2] (setting [9]) was 1 to 10 µM in each case.
